Our source for the IC50 values is ChEMBL document CHEMBL1137503, “Structure-based design, synthesis, and biological evaluation of peptidomimetic SARS-CoV 3CLpro inhibitors” (Bioorg Med Chem Lett, 2007).

Assay [1] has as its target Replicase polyprotein 1ab (Severe acute respiratory syndrome-related coronavirus, UniProt P0C6X7). The assay is described as follows: Inhibition of SARS-CoV 3C-like protease by FRET based microplate assay.
Another assay relates to SARS-CoV. The assay is described as follows: Antiviral activity against SARS coronavirus. The assay is classed as functional, organism-based. Conditions: Severe acute respiratory syndrome-related coronavirus.

For `CCOC(=O)/C=C/[C@H](C[C@@H]1CCNC1=O)NC(=O)[C@H](CC=C(C)C)CC(=O)[C@@H](NC(=O)c1cc(C)on1)C(C)C`, the IC50 in assay [1] was determined as 800 µM; in the assay with SARS-CoV, 70 µM.

Consider `CCOC(=O)/C=C/[C@H](C[C@@H]1CCNC1=O)NC(=O)[C@H](CC=C(C)C)CC(=O)[C@@H](NC(=O)[C@H](CO)NC(=O)OC(C)(C)C)C(C)C`, for which the IC50 is 80 µM in assay [1] and 75 µM in the assay with SARS-CoV.

In the case of `CCOC(=O)/C=C/[C@H](C[C@@H]1CCNC1=O)NC(=O)[C@H](CC(C)C)NC(=O)[C@@H](NC(=O)c1cc(C)on1)C(C)C`, the IC50 in assay [1] was 200 µM.

As to `CCOC(=O)/C=C/[C@H](C[C@@H]1CCNC1=O)NC(=O)[C@@H](CC(=O)[C@@H](NC(=O)c1cc(C)on1)C(C)C)Cc1ccccc1`, the results for the IC50 (in assay [1]; in the assay on SARS-CoV) were 870 µM and 45 µM, respectively.

Take `CCOC(=O)/C=C/[C@H](C[C@@H]1CCNC1=O)NC(=O)[C@H](CC(C)C)NC(=O)[C@@H](NC(=O)[C@H](CO)NC(=O)OC(C)(C)C)C(C)C`: the results for the IC50 (in assay [1]; in the assay with SARS-CoV) were 10 µM and 100 µM, respectively.

Regarding `CCOC(=O)/C=C/[C@H](C[C@@H]1CCNC1=O)NC(=O)[C@H](Cc1ccccc1)NC(=O)[C@@H](NC(=O)[C@H](CO)NC(=O)OC(C)(C)C)C(C)C`, the figures for the IC50 (in assay [1]; with SARS-CoV) were 15 µM and 100 µM, respectively.

In the case of `CCOC(=O)/C=C/[C@H](C[C@@H]1CCNC1=O)NC(=O)[C@H](Cc1ccccc1)NC(=O)[C@@H](NC(=O)c1cc(C)on1)C(C)C`, in assay [1], half-maximal inhibition (IC50) was put at 300 µM.

The term IC50 denotes the concentration that inhibits the measured activity by half. A high value points to a need for much substance.
